Results as given in article PMC3792051, “Polyenylpyrrole Derivatives Inhibit NLRP3 Inflammasome Activation and Inflammatory Mediator Expression by Reducing Reactive Oxygen Species Production and Mitogen-Activated Protein Kinase Activation” (PLoS ONE, 2013).

Columns and labels:
[1] = system: RAW 264.7 cells; test: AlamarBlue assay for cell viability (cytotoxicity); settings: read-out: IC50 (cytotoxicity), RAW 264.7 macrophages, 24 h treatment, 6.25-100 µM tested
[2] = system: LPS-activated RAW 264.7 macrophages; test: NO production inhibitory assay (Griess reaction); assay type: cell-based, murine; settings: for ED50 (inhibition of LPS-induced NO production): RAW 264.7 macrophages, LPS 1 µg/ml, 24 h, Griess reaction; for NO production by LPS-activated cells: 2.5-40 µM, 30 min before and during LPS 1 µg/ml 24 h; for NO levels produced by non-activated cells: compound alone, no LPS (data not shown)
Method: RAW 264.7 cells seeded in 24-well plates at a density of 5 × 10^5 cells/ml (1 ml) were incubated for 24 h with or without LPS (1 µg/ml) in the absence or presence of the test samples, then NO production was measured indirectly by analysis of nitrite levels using the Griess reaction.
(§1) To investigate the inhibitory effect of compounds 1h, 1i, and 1n on the LPS-induced inflammatory response, NO levels in the supernatants of RAW 264.7 macrophages incubated with DMSO (vehicle) or compound 1h, 1i, or 1n for 30 min before, and during, incubation for 24 h with LPS (1 µg/ml) were measured by the Griess reaction. […] We next investigated their effect on the expression of iNOS, the NO producing enzyme, using Western blots.
(§2) Figure 2 Effect of polyenylpyrrole derivatives on the expression of inflammatory mediators in LPS-stimulated RAW 264.7 macrophages. In (A) and (C), the cells (5 × 10^5/ml; 1 ml) were incubated for 30 min with 2.5-40 µM compound 1h, 1i, or 1n or DMSO (vehicle), then LPS (1 µg/ml) was added and incubation continued for 24 h, then NO (A) or IL-6 or TNF-α (C) in the culture medium was assayed by the Griess reaction or ELISA, respectively. In (B), cells (5 × 10^5/ml; 1 ml) were pretreated for 30 min with 2.5-40 µM compound 1h or DMSO, then LPS (1 µg/ml) was added and incubation continued for 24 h, then expression of iNOS and COX-2 was measured by Western blotting. The fold increase is the intensity of the band of interest divided by that of the actin band normalized to the corresponding value for the 0 LPS/0 inhibitor control.

[3] = system: LPS-activated RAW 264.7 macrophages; test: IL-6 and TNF-α secretion by ELISA; assay type: cell-based, murine; settings: for IL-6 production by LPS-activated cells / TNF-α secretion by LPS-activated cells: RAW 264.7, 2.5-40 µM, LPS 1 µg/ml 24 h; for Background levels of IL-6 and TNF-α in non-stimulated macrophages: RAW 264.7, no LPS (data not shown)
Method: The effects of the test samples on IL-1β, TNF-α, and IL-6 production were measured by ELISA according to the manufacturer’s instructions. In brief, 50 µl of biotinylated antibody reagent and 50 µl of supernatant were added to a stripwell plate precoated with anti-mouse IL-1β, TNF-α, or IL-6 antibodies, which was then incubated at room temperature for 2 h. After washing the plate three times with washing buffer, 100 µl of diluted streptavidin-HRP concentrate was added to each well and the plate incubated at room temperature for 30 min. The washing process was repeated, then 100 µl of a premixed tetramethylbenzidine substrate solution was added to each well and the plate incubated at room temperature in the dark for 30 min. After addition of 100 µl of stop solution to each well, the absorbance at 450 nm of each well was measured on a microplate reader.
as §1, §2

[4] = system: LPS-activated RAW 264.7 macrophages; test: iNOS and COX-2 expression by Western blot; assay type: cell-based, murine; settings: 30 min pretreatment, LPS 24 h; for COX-2 expression / LPS-induced iNOS expression: 0-40 µM; for Concentration at which reduction of LPS-induced iNOS expression is significant: Western blot
Method: Cells were washed twice with ice-cold phosphate-buffered saline (PBS) and lysed on ice for 5 min with lysis buffer (20 mM Tris-HCl, pH 7.5, 150 mM NaCl, 1 mM Na 2EDTA, 1 mM EGTA, 1% Triton X-100, 2.5 mM sodium pyrophosphate, 1 mM beta-glycerophosphate, 1 mM Na 3VO4, 1 µg/ml of leupeptin, 1 mM PMSF, protease inhibitor cocktail). The lysate was then centrifuged at 12,000 x g at 4 °C for 10 min and the pellet discarded. Proteins in the supernatant were separated by SDS-PAGE and electrotransferred to a PVDF membrane (EMD Millipore Corporation), which was then blocked by incubation for 1 h at room temperature in blocking buffer [(5% nonfat milk in PBS containing 0.1% Tween 20 (PBST)], then incubated for 2 h at room temperature with the primary antibody diluted in blocking buffer. After three washes in PBST, the membrane was incubated for 1 h at room temperature with an appropriate HRP-conjugated secondary antibody diluted in blocking buffer and developed using an enhanced chemiluminescence Western blot detection system (EMD Millipore Corporation).
as §1, §2

[5] = system: ATP-activated LPS-primed J774A.1 macrophages; test: Intracellular ROS production (DCF fluorescence), ATP-induced; assay type: cell-based, murine
Method: Intracellular ROS production was measured by detecting the fluorescence intensity of the 2’, 7’-dichlorofluorescein, the oxidation product of 2’, 7’-dichlorofluorescein diacetate (Molecular Probes, Eugene, OR). […] In another, J774A.1 macrophages (5 × 10^5/ml; 0.1 ml) were incubated with LPS (1 µg/ml) for 6 h, then vehicle, compound 1h (20 µM), or DPI (25 µM) was added for 30 min. 2’, 7’-dichlorofluorescein diacetate (2 µM) was then added for 30 min before incubation with ATP (5 mM) for the indicated time; while, in another, the order of addition of compound1h/DPI and LPS was reversed. The fluorescence intensity of 2’, 7’-dichlorofluorescein was detected at an excitation wavelength of 485 nm and an emission wavelength of 530 nm on a microplate absorbance reader (Bio-Rad Laboratories, Inc).
In (A), J774A.1 macrophages (1 × 10^6/ml; 1 ml) were incubated with LPS (1 µg/ml) for 6 h, then with compound 1h (20 µM), the NADPH oxidase inhibitor DPI (25 µM), or DMSO (vehicle) for 30 min in the continued presence of LPS, then 2’,7’-dichlorofluorescein diacetate (2 µM) was added for 30 min, followed by ATP (5 mM) for the indicated time, then ROS levels were determined by measuring the mean fluorescence intensity (MFI) of the fluorophore carboxyl-DCF and expressing this value relative to that at time zero. In (B), J774A.1 macrophages (1 × 10^6/ml; 1 ml) were incubated with compound 1h (20 µM), DPI (25 µM), or DMSO (vehicle) for 30 min, then LPS (1 µg/ml) was added for 6 h; the cells were then incubated with 2’,7’-dichlorofluorescein diacetate (2 µM) for 30 min, then with ATP (5 mM) for the indicated time and ROS levels were measured by detection of the fluorescence intensity of the fluorophore carboxyl-DCF and expressed relative to that at time zero.

[6] = system: LPS-activated RAW 264.7 macrophages; test: Intracellular ROS production (DCF fluorescence), LPS-induced; assay type: cell-based, murine; settings: RAW 264.7, 30 min pretreatment; compound 1h 20 µM, NAC 10 mM
Method: Intracellular ROS production was measured by detecting the fluorescence intensity of the 2’, 7’-dichlorofluorescein, the oxidation product of 2’, 7’-dichlorofluorescein diacetate (Molecular Probes, Eugene, OR). In one study, RAW 264.7 macrophages (5 × 10^5/ml; 0.1 ml) were incubated with vehicle, compound 1h (20 µM), or NAC (10 mM) for 30 min, then 2’, 7’-dichlorofluorescein diacetate (2 µM) was added for 30 min, then LPS was added for the indicated time. In another, J774A.1 macrophages (5 × 10^5/ml; 0.1 ml) were incubated with LPS (1 µg/ml) for 6 h, then vehicle, compound 1h (20 µM), or DPI (25 µM) was added for 30 min. 2’, 7’-dichlorofluorescein diacetate (2 µM) was then added for 30 min before incubation with ATP (5 mM) for the indicated time; while, in another, the order of addition of compound1h/DPI and LPS was reversed. The fluorescence intensity of 2’, 7’-dichlorofluorescein was detected at an excitation wavelength of 485 nm and an emission wavelength of 530 nm on a microplate absorbance reader (Bio-Rad Laboratories, Inc).
To test whether compound 1h exerted its anti-inflammatory effect on LPS-activated cells by downregulation of ROS production, intracellular ROS production in LPS-activated RAW 264.7 macrophages was measured.
Figure 5 Effect of compound 1h on ROS production and MAPK phosphorylation in LPS-activated macrophages. […]

[7] = in vitro; settings: mouse
[8] = system: various cancer cells; set-up: method as in PMID 16468746; settings: cited from earlier work

Structure (SMILES): COc1cc(/C=C/C=C/C=C/C=C/c2[nH]ccc2Cl)oc(=O)c1 [1a]
- IC50 [1]: < 10 µM

Structure (SMILES): CCCCc1c(OC)cc(/C=C/C=C/C=C/C=C/c2[nH]ccc2Cl)oc1=O [1c]
- IC50 [1]: < 10 µM

Structure (SMILES): COc1cc(/C(C)=C/C=C/C=C/C=C/c2[nH]ccc2Cl)oc(=O)c1 [1d]
- IC50 [1]: < 10 µM

Structure (SMILES): CC\C(=C/C=C/C=C/C=C/c1[nH]ccc1Cl)c1cc(OC)c(C)c(=O)o1 [1f]
- IC50 [1]: < 10 µM

Structure (SMILES): CCCCc1c(OC)cc(/C(C)=C/C=C/C=C/C=C/c2[nH]ccc2Cl)oc1=O [1g]
- IC50 [1]: < 10 µM

Structure (SMILES): COc1cc(/C=C/C=C/C=C/C=C/c2sccc2Cl)oc(=O)c1 [1j]
- IC50 [1]: > 100 µM
- ED50 (inhibition of LPS-induced NO production) [2]: 29 ± 6 µM

Structure (SMILES): COc1cc(/C=C/C=C/C=C/C=C/c2sccc2Cl)oc(=O)c1C [1k]
- IC50 [1]: > 100 µM
- ED50 (inhibition of LPS-induced NO production) [2]: 18 ± 2 µM

Structure (SMILES): COc1cc(/C=C/C=C/C=C/C=C/c2ccccc2Cl)oc(=O)c1C [1l]
- IC50 [1]: > 100 µM
- ED50 (inhibition of LPS-induced NO production) [2]: 18 ± 3 µM

Structure (SMILES): COc1cc(/C=C/C=C/C=C/C=C/c2cccc(Cl)c2)oc(=O)c1C [1m]
- IC50 [1]: > 100 µM
- ED50 (inhibition of LPS-induced NO production) [2]: 26 ± 3 µM

Structure (SMILES): COc1cc(/C=C/C=C/C=C/C=C/c2c(Cl)ccn2S(C)(=O)=O)oc(=O)c1C [1n]
- IL-6 production by LPS-activated cells [3]: significantly decreased IL-6 production by LPS-activated cells in a dose-dependent manner
- TNF-α secretion by LPS-activated cells [3]: only slightly and non-significantly reduced
- Background levels of IL-6 and TNF-α in non-stimulated macrophages [3]: none of the three compounds altered background levels of IL-6 and TNF-α
- IC50 [1]: > 100 µM
- NO production by LPS-activated cells [2]: decreased NO production by LPS-activated cells in a dose-dependent manner
- ED50 (inhibition of LPS-induced NO production) [2]: 17 ± 2 µM
- NO levels produced by non-activated cells [2]: did not alter NO levels produced by non-activated cells
- COX-2 expression [4]: did not affect expression of COX-2
- LPS-induced iNOS expression [4]: reduced LPS-induced iNOS expression
- Concentration at which reduction of LPS-induced iNOS expression is significant [4]: 40 µM

Structure (SMILES): c1ccc2c(c1)[I+]c1ccccc1-2 [DPI, diphenylene iodonium, reference compound]
- ATP-induced ROS production, compound added after LPS priming ([5]; J774A.1, LPS 6 h, then compound 1h 20 µM or DPI 25 µM 30 min, ATP 5 mM 0-40 min): inhibited both processes
- ATP-induced ROS production, compound added 30 min before LPS priming ([5]; J774A.1, compound 1h 20 µM or DPI 25 µM 30 min, then LPS 6 h, then ATP 5 mM): inhibited both processes

Structure (SMILES): CC(=O)N[C@@H](CS)C(=O)O [NAC, N-acetyl cysteine, reference compound]
- LPS-stimulated ROS production [6]: reduced ROS production

Structure (SMILES): COc1cc(/C=C/C=C/C=C/C=C/c2[nH]ccc2Cl)oc(=O)c1C [compound 1b, auxarconjugatin A]
- IC50 [7]: < 10 µM

Structure (SMILES): COc1cc(/C(C)=C/C=C/C=C/C=C/c2[nH]ccc2Cl)oc(=O)c1C [compound 1e, 12E-isorumbrin]
- Cytotoxicity for various cancer cells [8]: shown to be cytotoxic for various cancer cells
- IC50 [7]: < 10 µM

Structure (SMILES): Cc1c(O)cc(/C=C/C=C/C=C/C=C/c2[nH]ccc2Cl)oc1=O [compound 1i]
- IL-6 production by LPS-activated cells [3]: significantly decreased IL-6 production by LPS-activated cells in a dose-dependent manner
- TNF-α secretion by LPS-activated cells [3]: only slightly and non-significantly reduced
- Background levels of IL-6 and TNF-α in non-stimulated macrophages [3]: none of the three compounds altered background levels of IL-6 and TNF-α
- IC50 [1]: > 100 µM
- NO production by LPS-activated cells [2]: decreased NO production by LPS-activated cells in a dose-dependent manner
- ED50 (inhibition of LPS-induced NO production) [2]: 16 ± 2 µM
- NO levels produced by non-activated cells [2]: did not alter NO levels produced by non-activated cells
- COX-2 expression [4]: did not affect expression of COX-2
- LPS-induced iNOS expression [4]: reduced LPS-induced iNOS expression
- Concentration at which reduction of LPS-induced iNOS expression is significant [4]: 40 µM
